This is an account of results in PMC8291587, “Guanidine Derivatives: How Simple Structural Modification of Histamine H3R Antagonists Has Led to the Discovery of Potent Muscarinic M2R/M4R Antagonists” (ACS Chemical Neuroscience, 2021).

The test system of one assay is M2R/M3R. Kind of assay: Ex vivo screening of muscarinic M2R/M3R antagonists on isolated guinea pig ileum (methacholine-induced contraction). The conditions noted are these: methacholine as agonist. Here is the method: Another group of guinea pig intestinal receptors able to regulate smooth muscle contraction is that of the muscarinic receptors, including M2R and M3R. All compounds were tested on the muscarinic receptors using the same animal model. This approach is similar to measuring histamine H1R antagonist activity. Methacholine was used as a receptor agonist, while 1,1-dimethyl-4-diphenylacetoxypiperidinium iodide (4-DAMP) was used as a reference M3R antagonist. As methacholine is not selective according to M2R and M3R, it is not possible to precisely specify which one was responsible for the effect observed on the tissue preparations. Some authors often attribute the results to the minor M3R subtype (gpM2R:M3R = 4:1 or 5:1), which is generally associated with the contractions,[38] but such an overinterpretation may be misleading, as indicated by our further hM1R-hM5R radioligand binding assay results shown in Table 2. […] These findings partially explain the influence of ADS10227 on the contractility of guinea pig ileum following electrical stimulation. […] In subsequent studies, we tried to clarify this.
Male guinea pigs, weighing 300–400 g, were euthanized by a blow to the neck. A 20–30 cm length of the distal ileum, apart from the terminal 5 cm, was rapidly removed and placed in phosphate buffer at room temperature (pH 7.4) containing (mM) NaCl (136.9), KCl (2.6), KH2PO4 (1.47), Na2HPO4 (9.58), and indomethacin (1 × 10^–6 mol/L)). The intraluminal content was rinsed, and the isolated intestine was cut into 1.5–2 cm segments. The preparations were mounted isotonically in a 20 mL organ bath filled with Tyrode’s buffer: composition (mM) NaCl (137), KCl (2.7), MgCl2·6H2O (1.0), CaCl2 (1.8), NaH2PO4·H2O (0.4), NaHCO3 (11.9), glucose (5.61), and indomethacin (3 × 10^–7 mol/L). The solution was continuously bubbled with a 95% O2:5% CO2 mixture and maintained at 37 °C under a constant load of 0.5 g (Hugo Sachs Hebel–Messvorsatz (Tl-2)/HF-modem; Hugo Sachs Elektronik, Hugstetten, Germany) connected to a pen recorder (Kipp & Zonen BD41, Delft, Holland). During an equilibration period of 40 min, Tyrode’s buffer was changed every 10 min. The first cumulative concentration–response curve was determined for methacholine (10 nM to 3 mM) at increasing concentrations spaced by 3- or 3.3-fold. The second to the fourth (or fifth) curves were measured in the presence of an increasing concentration of antagonist (incubation time 20 min). The pA2 values were calculated according to Arunlakshana and Schild.[37] Statistical analysis was carried out with the Students’ t test. In all tests, a p < 0.05 was considered statistically significant.

The target of a further assay is T1, H1R (Cavia porcellus, UniProt P31389).
T1 construct: from tissue; host or cells: isolated distal ileum of male guinea pigs
T1 sequence (P31389 whole entry): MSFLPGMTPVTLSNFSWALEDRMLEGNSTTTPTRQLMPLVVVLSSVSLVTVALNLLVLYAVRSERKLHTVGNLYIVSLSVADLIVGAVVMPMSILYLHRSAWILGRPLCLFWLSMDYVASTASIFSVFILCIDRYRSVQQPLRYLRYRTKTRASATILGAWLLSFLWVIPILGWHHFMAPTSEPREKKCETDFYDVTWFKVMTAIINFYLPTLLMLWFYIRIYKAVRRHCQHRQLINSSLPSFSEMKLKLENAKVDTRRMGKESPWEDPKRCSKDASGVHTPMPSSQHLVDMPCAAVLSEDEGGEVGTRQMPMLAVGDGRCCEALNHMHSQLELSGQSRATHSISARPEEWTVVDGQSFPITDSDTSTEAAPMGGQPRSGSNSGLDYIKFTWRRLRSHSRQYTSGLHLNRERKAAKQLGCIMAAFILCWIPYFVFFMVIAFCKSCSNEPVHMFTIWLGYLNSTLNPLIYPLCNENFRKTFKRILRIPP
Kind of assay: Ex vivo screening of histamine H1R antagonists on guinea pig ileum, variant without atropine. The conditions noted are these: isolated guinea pig ileum, histamine as agonist. Here is the method: The second histamine receptor located in the guinea pig ileum is H1R. […] The H1R antagonistic effect was measured on isolated guinea pig ileum stimulated to contract by histamine.[37] To assess and exclude the influence of the ADS compounds on muscarinic receptors, two test variations were used: one with the addition of 0.05 μM atropine and one without.
Male guinea pigs, weighing 300–400 g, were euthanized by a blow to the neck. A 20–30 cm length of the distal ileum, apart from the terminal 5 cm, was rapidly removed and placed in phosphate buffer at room temperature (pH 7.4) containing (mM) NaCl (136.9), KCl (2.6), KH2PO4 (1.47), Na2HPO4 (9.58), and indomethacin (1 × 10^–6 mol/L). The intraluminal content was rinsed, and the isolated intestine was cut into 1.5–2 cm segments. The preparations were mounted isotonically in a 20 mL organ bath filled with Krebs buffer: composition (mM) NaCl (118), KCl (5.6), MgSO4 (1.18), CaCl2 (2.5), NaH2PO4·H2O (1.28), NaHCO3 (25), glucose (5.55), and indomethacin (3 × 10^–7 mol/L). […] The solution was continuously bubbled with a 95% O2:5% CO2 mixture and maintained at 37 °C under a constant load of 0.5 g (Hugo Sachs Hebel–Messvorsatz (Tl-2)/HF-modem; Hugo Sachs Elektronik, Hugstetten, Germany) connected to a pen recorder (Kipp & Zonen BD41, Delft, Holland). During an equilibration period of 40 min, Krebs buffer was changed every 10 min. The first cumulative concentration–response curve was determined for histamine (10 nM to 10 mM) at increasing concentrations spaced by 3- or 3.3-fold. The second to the fourth (or fifth) curves were measured in the presence of an increasing concentrations of antagonist (incubation time 10 min). The pA2 values were calculated according to Arunlakshana and Schild.[37] Statistical analysis was carried out with the Students’ t test. In all tests, a p < 0.05 was considered statistically significant.

Setting [1] is: read-out: H1R pA2 gpi ± sem (converted).

Where “and” joins values, the source holds several entries; their conditions need not be identical. Equal values may be shown once. Read-outs that look alike come from different tables or passages of the source.

`N=C(N)N(CCCCN1CCN(CCCCCCCOc2ccccc2)CC1)Cc1ccccc1` [ADS1017]: the “M2R/M3R pA2 gpi ± sem” value in the assay on M2R/M3R is 6.36 and 6.36 ±0.10. The compound also had a Kb at H1R (H1R pA2 gpi ± sem) of 331 nM.
In the case of `N=C(N)N(CCCCN1CCN(C[C@H]2CC[C@@H](COc3ccccc3)CC2)CC1)Cc1ccccc1` [ADS10227, 1-{4-{4-{[4-(phenoxymethyl)cyclohexyl]methyl}piperazin-1-yl}but-1-yl}-1-(benzyl)guanidine], the “M2R/M3R pA2 gpi ± sem” value in the assay with M2R/M3R stood at 6.97±0.09. For the same compound, at H1R (setting [1]), the Kb is 70.8 nM.
For `[H]/N=C(/N)N(CCCCN1CCN(CC2CCC(COc3ccccc3)CC2)CC1)Cc1ccc(C(F)(F)F)cc1` (stereo not drawn) [ADS10239] the same measures were 6.46±0.11 and 110 nM.
